Experimental data as given in ChEMBL document CHEMBL1133049, “Expeditious synthesis and cytotoxic activity of new cyanoindolo[3,2-c]quinolines and benzimidazo[1,2-c]quinazolines” (Bioorg Med Chem Lett, 2000).
Calls of active or inactive are those of the source. No cut-off for these calls is given here.

Tests used:
L1210 [1] = test: Antiproliferative activity of compound was assessed using the murine L1210 leukemia cell line; format: functional, cell-based; details: Mus musculus
L1210 [2] = test: Percent perturbations evaluated at 10 uM induced on L1210 cells in the >G2+M (8N) phase of cell cycle; format: functional, Mus musculus
L1210 [3] = test: Percent perturbations evaluated at 10 uM induced on L1210 cells in the G2+M phase of cell cycle; format: functional, Mus musculus
HT-29 = test: Cytotoxicity of compound was evaluated on the HT-29 cell line; format: functional, cell-based; details: Homo sapiens
L1210 [4] = test: Percent perturbations evaluated at 10 uM induced on L1210 cells in the >G2+M (8N) phase of cell cycle; inactive; format: functional, cell-based; details: Mus musculus

| Compound | IC50 (L1210 [1]) | Perturbations (L1210 [2]) | Perturbations (L1210 [3]) | IC50 (HT-29) | Perturbations (L1210 [4]) |
| --- | --- | --- | --- | --- | --- |
| N#Cc1[nH]c2ccccc2c2nc3ccccc3c1-2 | > 100 µM | – | – | – | – |
| c1ccc2c(c1)ncn1c3ccccc3nc21 | > 100 µM | – | – | – | – |

The next compounds have a lower IC50 (L1210 [1]) than those just listed; values first:

| IC50 (L1210 [1]) | Compound | Perturbations (L1210 [2]) | Perturbations (L1210 [3]) | IC50 (HT-29) | Perturbations (L1210 [4]) |
| --- | --- | --- | --- | --- | --- |
| 3.1 µM | CN(C)CCn1c2ccccc2c2c(C#N)nc3ccccc3c21 | 21% | 50% | 0.68 µM | – |
| 58.8 µM | Cn1c2ccccc2c2c(C#N)nc3ccccc3c21 | – | – | – | – |
| 5.4 µM | N#Cc1nc2ccccc2c2nc3ccccc3n12 | – | 61% | 5.2 µM | inactive |
